# Experimental data: patent US12428405B2, “Chalcone-based chemotherapeutic compound for triple negative breast cancer” (QATAR UNIVERSITY, priority 2019, dated 2025)
# Read-outs that look alike come from different tables or passages of the source.
# Key:
# [1] = tested on: MDA-MB-231; test: Cell cycle analysis (flow cytometry); type: cell-based; settings: 10 μM, 48 hours post treatment; N=1
# Description: The MDA-MB-231, MDA-MB-468 and MCF-7 cell lines were seeded on 6-well plates at a concentration of 200,000 cells per well and were maintained in culture supplemented with 10% fetal bovine serum for 8-10 hours. The same day, media was removed and cells were incubated overnight with serum free media. Second day, cells were treated with the compounds. Adherent and floating cell populations were harvested at 48 hours after treatment with different concentrations of the compounds and counted.
# Afterward, cells were washed with cold PBS once, centrifuged at 4° C. and fixed with 1.5 ml cold 70% ethanol added drop wise while slowly vortexing. Samples were then stored at […] Following fixation, cells were pelleted and washed with ice-cold PBS. Equal aliquots were collected and resuspended in 300 μl of Tali® Cell Cycle Kit and incubated at 37 C. with slow shaking speed for 30 minutes in the dark. Accuri C6 flow cytometer (BD Biosciences, USA) was used to analyze the cells. The FlowJo V10 software was used to process and evaluate the results.
# [2] = tested on: MDA-MB-231; test: Migration (wound healing) assay; type: cell-based; settings: for activity at 5 µM: read-out: % migration; for IC50: 24 hours of treatment, 5 concentrations, two independent experiments, read-out: Migratory IC50 MDA-MB-231
# Description: MDA-MB-231 cells were seeded in 12-wells plates at a concentration of 500,000 cells/well and were incubated in complete RPMI culture medium until covering the well and reaching around 90-100% confluency. Following, cells were serum starved for 4 hours and a 200 μl pipette tip was used to create the scratch followed by cell washing with PBS twice. […] Microscopic pictures were then taken, and cell migration was quantified based on the wound diameter at 24 hours minus the initial diameter at time zero, as represented by the following equation: % Migration=[…]
# [3] = tested on: MDA-MB-468; test: Soft agar colony formation assay; type: cell-based; settings: MDA-MB-468; soft agar
# [4] = tested on: MCF-7; test: Soft agar colony formation assay; type: cell-based; settings: MCF-7; soft agar
# [5] = tested on: Epithelial Mesenchymal Transition (EMT) markers in MDA-MB-231 cells; test: Western blot of EMT markers; type: cell-based; settings: cell line not named in the sentence (FIG. 3.24, FIG. 3.25)
# Description: Proteins were quantified with the Pierce BCA Protein Assay Kit (Thermo Scientific, USA) following cell lysis. SDS-PAGE was prepared at a concentration of 10% for all studied proteins. All samples were loaded at 40 μg per 1.5 mm 15 wells comb. Running of stained samples was performed using two steps gel electrophoresis (60 Volts for 20 minutes followed by 120 Volts for 1 hour). Afterwards, gels were transferred into PVDF membrane at 100 Voltage for 1.5-2.0 hours using wet transfer. Following transfer, PVDF membranes were blocked with 5% skimmed milk and washed three times. Primary antibodies (Table 2.2) were prepared, then PVDF membrane were incubated with them overnight with gentle shaking at 4° C. Afterwards, membranes were washed three times and incubated with their respective secondary antibodies for 1-2 hours with gentle shaking at room temperature. Pierce™ ECL Western Blotting Substrate was used to detect proteins by chemiluminescence. Blots were imaged using the ibrightCL1000 imaging system.
# [6] = tested on: MDA-MB-231; test: Soft agar colony formation assay; type: cell-based; settings: MDA-MB-231; soft agar
# [7] = tested on: Chorioallantoic membrane (CAM) of the chicken embryos; test: Chorioallantoic membrane (CAM) angiogenesis assay; type: in vivo; settings: treated at embryonic day 4, read at day 8; 2 μl of 5 mM stock under coverslip
# Description: Fertilized white Leghorn chicken embryos (Arab Qatari for Poultry Production, Qatar) were purchased and incubated at 60% humidity at 37° C. in MultiQuip incubator. Ethics approval was obtained from Qatar University-Institutional Bio-safety committee. The embryos were treated in ovo at embryonic day 4 with three of the synthesized chalcones (5, 13 and 14) compared to DMSO treated controls. Briefly, a small cut was made at the top of the shells of the eggs and each treatment was added under a round coverslip at 2 μl of 5 mM stock solutions. Microscopic pictures were taken at embryonic day 8. Embryos treated with compounds 13 and 14 were sacrificed at embryonic day 9 for clinical observations. Quantification of blood vessels was performed manually and the different treatment groups were compared.
# [8] = Homo sapiens, MDA-MB-231, 5 μM, 24 hours post treatment, control = 100, Mean ± SEM (N = 2 × 2)
smiles,measurement,setting,value
"CS(=O)(=O)c1ccc(C(=O)/C=C/c2ccc(N3CCCC3)cc2)cc1 [Compound 2, (E)-1-(4-(methylsulfonyl)phenyl)-3-(4-(pyrrolidin-1-yl)phenyl) prop-2-en-1-one]",cell cycle shifts (in words),[1],slight S phase arrest
same,activity at 5 µM,[2]; [8],67.3 ± 53.9%
"CS(=O)(=O)c1ccc(C(=O)/C=C/c2ccc(N3CCOCC3)cc2)cc1 [Compound 3, (E)-1-(4-(methylsulfonyl)phenyl)-3-(4-morpholinophenyl) prop-2-en-1-one]",activity at 5 µM,[2]; [8],65.7 ± 52.4%
"COc1cc2c(c(OC)c1OC)-c1ccc(OC)c(=O)cc1[C@@H](NC(C)=O)CC2 [Colchicine, reference compound]",colony formation (in words),[3],significantly inhibited the ability of cells to form colonies
same,activity at 5 µM,"[2]; Homo sapiens, MDA-MB-231, 24 h",47.45 ± 0.25%
same,colony formation (in words),[4],significantly inhibited the ability of cells to form colonies
same,expression of β-catenin and its phosphorylated form,[5],upregulated phospho-3-catenin
same,colony formation (in words),[6],significantly inhibited the ability of cells to form colonies
"O=C(/C=C/c1ccc(N2CCCC2)cc1)c1cccc(Cl)c1 [Compound 1, (E)-1-(3-chlorophenyl)-3-(4-(pyrrolidin-1-yl)phenyl) prop-2-en-1-one]",activity at 5 µM,[2]; [8],74.7 ± 5.8%
"O=C(/C=C/c1ccc(N2CCCC2)cc1)c1ccc2c(c1)OCO2 [Compound 10, (E)-1-(benzo[d][1,3]dioxol-5-yl)-3-(4-(pyrrolidin-1-yl)phenyl)prop-2-en-1-one]",activity at 5 µM,[2]; [8],53.5 ± 5.98%
same,IC50,"[2]; Homo sapiens, MDA-MB-231",4.8 ± 0.72 µM
"O=C(/C=C/c1ccc(N2CCOCC2)cc1)c1ccc(N2CCNCC2)cc1 [Compound 11, (E)-3-(4-morpholinophenyl)-1-(4-(piperazin-1-yl)phenyl) prop-2-en-1-one]",activity at 5 µM,[2]; [8],75.1 ± 0.86%
"CS(=O)(=O)c1ccc(C(=O)/C=C/c2ccc(N3CCCCC3)cc2)cc1 [Compound 4, (E)-1-(4-(methylsulfonyl)phenyl)-3-(4-(piperidin-1-yl)phenyl) prop-2-en-1-one]",activity at 5 µM,[2]; [8],70.7 ± 55.9%
"COc1ccccc1C(=O)/C=C/c1ccc(N(CCCl)CCCl)cc1 [Compound 12, (E)-3-(4-(Bis(2-chloroethyl)amino)phenyl)-1-(2-methoxyphenyl) prop-2-en-1-one]",IC50,[2],1.99 ± 0.19 µM
same,IC50,"[2]; Homo sapiens, MDA-MB-231, 24 h",2 ± 0.189 µM
same,activity at 5 µM,[2]; [8],32.8 ± 0.68%
"CSc1ccc(C(=O)/C=C/c2ccc(N3CCOCC3)cc2)cc1 [Compound 5, (E)-1-(4-(methylthio)phenyl)-3-(4-morpholinophenyl) prop-2-en-1-one]",inhibition of blood vessels development vs control,[7],68.49±4.42%
same,cell cycle shifts (in words),[1],no major cell cycle shifts
same,activity at 5 µM,[2]; [8],64.3 ± 3.32%
same,IC50,"[2]; Homo sapiens, MDA-MB-231",6.14 ± 0.62 µM
"COc1cccc(C(=O)/C=C/c2ccc(N3CCCC3)cc2)c1 [Compound 8, (E)-1-(3-methoxyphenyl)-3-(4-(pyrrolidin-1-yl)phenyl) prop-2-en-1-one]",activity at 5 µM,[2]; [8],48.7 ± 2.85%
same,IC50,"[2]; Homo sapiens, MDA-MB-231",3 ± 0.46 µM
"COc1cccc(C(=O)/C=C/c2ccc(N3CCCCC3)cc2)c1 [Compound 9, (E)-1-(3-methoxyphenyl)-3-(4-(piperidin-1-yl)phenyl)prop-2-en-1-one]",cell cycle shifts (in words),[1],no major cell cycle shifts
same,activity at 5 µM,[2]; [8],75 ± 0.86%
"CSc1ccc(C(=O)/C=C/c2ccc(N3CCCCC3)cc2)cc1 [Compound 6, (E)-1-(4-(methylthio)phenyl)-3-(4-(piperidin-1-yl)phenyl) prop-2-en-1-one]",activity at 5 µM,[2]; [8],69.5 ± 3.92%
"CC(=O)O[C@H]1C(=O)[C@@]2(C)[C@H]([C@H](OC(=O)c3ccccc3)[C@]3(O)C[C@H](OC(=O)[C@H](O)[C@@H](NC(=O)c4ccccc4)c4ccccc4)C(C)=C1C3(C)C)[C@]1(OC(C)=O)CO[C@@H]1C[C@@H]2O [Paclitaxel, reference compound]",colony formation (in words),[3],significantly inhibited the ability of cells to form colonies
same,activity at 5 µM,[2]; [8],39.3 ± 5.16%
same,IC50,"[2]; Homo sapiens, MDA-MB-231",2.01 ± 0.22 µM
same,colony formation (in words),[4],significantly inhibited the ability of cells to form colonies
same,colony formation (in words),[6],significantly inhibited the ability of cells to form colonies
"CSc1ccc(C(=O)/C=C/c2ccc(N3CCCC3)cc2)cc1 [Compound 7, (E)-1-(4-(methylthio)phenyl)-3-(4-(pyrrolidin-1-yl)phenyl) prop-2-en-1-one]",activity at 5 µM,[2]; [8],71.8 ± 0.06%
